How the values were obtained:
Assay type in all cases: in vivo
Marigold = assay: Phytotoxicity, marigold; parameters: key: 0: the compounds had no visible effects on that plant species; conditions: scale 0 to 10, eight pounds per acre, approximately two weeks
Procedure: (§1) Several species of the novel compounds were tested for their phytotoxic effects. Two flats of each species of plants to be tested were planted 8-14 days before testing and grown at greenhouse conditions. One flat was sprayed with the chemical to be tested at the rate of eight pounds per acre while the other control flat was sprayed with solvent only. The results of such testing were recorded approximately two weeks after treatment and are reproduced in Table III below.
(§2) Numerical ratings from "0" to "10" are used to designate the degree of activity.

Snapbean = assay: Phytotoxicity, snapbean; parameters: key: 0: the compounds had no visible effects on that plant species; conditions: scale 0 to 10, eight pounds per acre, approximately two weeks
Procedure: as §1, §2

Cucumber = assay: Phytotoxicity, cucumber; parameters: key: 0: the compounds had no visible effects on that plant species; conditions: scale 0 to 10, eight pounds per acre, approximately two weeks
Procedure: as §1, §2

flax = assay: Phytotoxicity, flax; parameters: key: 0: the compounds had no visible effects on that plant species; conditions: scale 0 to 10, eight pounds per acre, approximately two weeks
Procedure: as §1, §2

Sorghum = assay: Phytotoxicity, sorghum; parameters: key: 0: the compounds had no visible effects on that plant species; conditions: scale 0 to 10, eight pounds per acre, approximately two weeks
Procedure: as §1, §2

[1] = tested on: egg of the Southern armyworm (Spodoptera eridania (Cram.)); assay: Southern armyworm ovicide test; parameters: key: A: excellent control; B: partial control; C: no control at 500 ppm; conditions: 500 parts per million, egg dip, four days
Procedure: (§3) Suspensions of the test compounds were prepared by dissolving one gram of compound in 50 milliliters of acetone in which had been dissolved 0.1 gram (10 percent of the weight of compound) of an alkylphenoxy polyethoxyethanol surfactant, as an emulsifying or dispersing agent. The resulting solution was mixed into 150 milliliters of water to give roughly 200 milliliters of a suspension containing the compound in finely divided form. The thus-prepared stock suspension contained 0.5 percent by weight of compound. The concentrations in parts per million by weight employed in the tests described hereinbelow were obtained by appropriate dilutions of the stock suspension with water. The test procedures were as follows:
The test organism was the egg of the Southern armyworm (Spodoptera eridania (Cram.)) as obtained from adults reared on Tendergreen bean plants at a temperature of 80±5° F. and a relative humidity of 50±5 percent. The eggs were laid on freezer paper (Marlon 717, Copco paper) and then cut into small sections containing one or two egg masses.
The test compounds were formulated by diluting the stock suspension with water to give a suspension containing 500 parts of test compound per million parts of final formulation. The egg masses were then dipped until they were thoroughly wet (5-10 seconds). They were then placed on a paper towel face up and were allowed to dry for 15-30 minutes. The dry eggs were placed in a 15×60 mm petri dish containing a cotton dental wick saturated with a 5 percent sodium chloride solution to maintain a high level of humidity. The closed dishes were labeled and held at a temperature of 80±5° F. for four days. Larvae that emerged from the egg, even if dead at the time of observation, were recorded as hatched.
(§4) In these tests the pesticidal activity of the compounds at the indicated dosage rate against aphid, Southern Armyworm, Bean Beetle and housefly was rated as follows: […]

[2] = tested on: root-knot nematode, Meloidogyne incognita var. acrita; assay: Nematocide test; parameters: key: 1: severe galling, equal to untreated plants; 2: moderate galling; 3: light galling; 4: very light galling; 5: no galling, perfect control; conditions: 3.33 m.g. per jar, cucumber, approximately 3 weeks
Procedure: The test organism used was the infective migratory larvae of the root-knot nematode, Meloidogyne incognita var. acrita, reared in the greenhouse on roots of cucumber plants. Infected plants were removed from the culture, and the roots were chopped very finely. A small amount of this inoculum was added to a pint jar containing approximately 180 cc. of soil. The jars were capped and incubated for one week at room temperature. During this period eggs of the nematode were hatched, and the larval forms migrated into the soil.
Ten ml. of the test formulation were added to each of the two jars for each dosage tested. Following the addition of chemical, the jars were capped, and the contents thoroughly mixed on a ball mill for […].
The test compounds were formulated by a standard procedure of solution in acetone addition of an emulsifier, and dilution with water. Primary screening tests were conducted at 3.33 m.g. of the test compound per jar.
The jars were left capped at room temperature for a period of 48 hours, and the contents then transferred to 3 inch pots. Subsequently, the pots were seeded to cucumber as an indicator crop and placed in the greenhouse where they were cared for in the normal fashion for approximately 3 weeks.
The cucumber plants were then taken from the pots, the soil removed from the roots, and the amount of galling visually rated.
In the test for activity against nematodes activity was rated as follows: […]

[3] = tested on: house flies (Musca domestica, L.); assay: Fly bait test; parameters: key: A: excellent control; B: partial control; C: no control at 500 ppm; conditions: 500 parts per million, sugar bait, twenty-four hours
Procedure: as §3
Four to six day old adult house flies (Musca domestica, L.), reared according to the specifications of the Chemical Specialties Manufacturing Association (Blue Book, McNair-Dorland Co., N.Y. 1954; pages 243-244, 261) under controlled conditions of 80±5° F. and 50±5 percent relative humidity, were the test insects. The flies were immobilized by anesthetizing them with carbon dioxide. Twenty-five immobilized individuals, males and females, were transferred to a cage consisting of a standard food strainer about five inches in diameter which was inverted over a wrapping-paper-covered surface. The test compounds were formulated by diluting the stock suspension with a 10 percent (by weight) sugar solution to give a suspension containing 500 parts of test compound per million parts of final formulation, by weight. Ten milliliters of the test formulation were added to a souffle cup containing a one-inch square of an absorbent cotton pad. This bait cup was introduced and centered on the blotting paper under the food strainer prior to admitting the anesthetized flies. The caged flies were allowed to feed on the bait for twenty-four hours, at a temperature of 80±5° F. and at a relative humidity of 50±5 percent.
as §4

[4] = tested on: southern armyworm (Spodoptera eridania, (Cram.)) larvae; assay: Southern armyworm leaf spray bait test; parameters: key: A: excellent control; B: partial control; C: no control at 500 ppm; conditions: 500 parts per million, three days
Procedure: as §3
Larvae of the southern armyworm (Spodoptera eridania, (Cram.)), reared on Tendergreen bean plants at a temperature of 80±5° F. and a reative humidity of 50±5 percent, constituted the test insects.
The test compounds were formulated by diluting the stock suspension with water to give a suspension containing 500 parts of test compound per million parts of final formulation. Potted Tendergreen bean plants of standard height and age were placed on a revolving turntable and sprayed with 100-110 milliliters of test compound formulation by use of a DeVilbiss spray gun set at 40 psig air pressure. This application, which lasted 25 seconds, was sufficient to wet the plants to run-off. As a control, 100-110 milliliters of a water-acetone-emulsifier solution containing no test compound were also sprayed on infested plants. When dry, the paired leaves were separated and each one was placed in a 9 centimeter Petri dish lines with moistened filter paper. Five randomly selected larvae were introduced into each dish and the dishes were closed. The closed dishes were labeled and held at 80°-85° F. for three days. Although the larvae could easily consume the whole leaf within twenty-four hours, no more food was added. Larvae which were unable to move the length of the body, even upon stimulation by prodding, were considered dead.
as §4

[5] = tested on: bean aphid (Aphis fabae Scop.); assay: Bean aphid foliage spray test; parameters: key: A: excellent control; B: partial control; C: no control at 500 ppm; conditions: 500 parts per million, 24 hour
Procedure: as §3
Adults and nymphal stages of the bean aphid (Aphis fabae Scop.) reared on potted dwarf nasturtium plants at 68°-70° F. and 50±5 percent relative humidity, constituted the test insects. For testing purposes, the number of aphids per pot were standardized to 100-150 by trimming plants containing excess aphids.
The test compounds were formulated by diluting the stock suspension with water to give a suspension containing 500 parts of test compound per million parts of final formulation.
The potted plants (one pot per compound tested) infested with 100-150 aphids, were placed on a revolving turntable and sprayed with 100-110 milliliters of test compound formulation by use of a DeVilbiss spray gun set at 40 psig. air pressure. This application, which lasted 25 seconds, was sufficient to wet the plants to run-off. As a control, 100-110 milliliters of a water-acetone-emulsifier solution containing no test compound was also sprayed on infested plants. After spraying, the pots were placed on their sides on a sheet of white standard mimeograph paper which had been previously ruled to facilitate counting. Temperature and humidity in the test room during the 24 hour holding period were 68°-70° F. and 50±5 percent, respectively. Aphids which fell onto the paper and were unable to remain standing after being uprighted were considered dead. Aphids remaining on the plants were observed closely for movement and those which were unable to move the length of the body upon stimulation by prodding were considered dead.
as §4

[6] = tested on: Mexican bean beetle (Epilachna varivestis, Muls.) larvae; assay: Mexican bean beetle leaf spray test; parameters: key: A: excellent control; B: partial control; C: no control at 500 ppm; conditions: 500 parts per million, fourth instar larvae, three days
Procedure: as §3
Fourth instar larvae of the Mexican bean beetle (Epilachna varivestis, Muls.), reared on Tendergreen bean plants at a temperature of 80±5° F. and 50±5° F. percent relative humdity, were the test insects.
The test compounds were formulated by diluting the stock suspension with water to give a suspension containing 500 parts of test compound per million parts of final formulation. Tendergreen bean plants of standard height and age were placed on a revolving turntable and sprayed with 100-110 milliliters of test compound formulation by use of a DeVilbiss spray gun set at 40 psig air pressure. This application, which lasted 25 seconds, was sufficient to wet the plants to run-off. As a control, 100-110 milliliters of a water-acetone-emulsifier solution containing no test compound was also sprayed on infested plants. When dry, the paired leaves were separated and each was placed in a 9 centimeter Petri dish lined with moistened filter paper. Five randomly selected larvae were introduced into each dish, and the dishes were closed. The closed dishes were labeled and held at a temperature of 80±5° F., for three days. Although the larvae could easily consume the leaf within 24 to 48 hours, no more food was added. Larvae which were unable to move the length of the body, even upon stimulation, were considered dead.
as §4

Compound	Phytotoxicity rating, Marigold (Marigold)	Phytotoxicity rating, Snapbean (Snapbean)	Phytotoxicity rating, Cucumber (Cucumber)	Phytotoxicity rating, flax (flax)	Phytotoxicity rating, Sorghum (Sorghum)	Southern Armyworm (egg), pesticidal activity rating [1]	Root-Knot Nematode, galling rating [2]	Housefly, pesticidal activity rating [3]	Southern Armyworm, pesticidal activity rating [4]	Aphids, pesticidal activity rating [5]	Mexican Bean Beetle, pesticidal activity rating [6]
CSC(C)=NOC(=O)N(C)SN(C)C(=O)Oc1ccccc1C(C)=O	0	0	0	0	0	–	–	–	–	–	–
CSC(C)=NOC(=O)N(C)SN(C)C(=O)Oc1ccccc1C=O [drawing 25]	0	0	0	0	0	–	–	–	–	–	–
CSC(C)=NOC(=O)N(C)SN(C)C(=O)Oc1cccc(C(C)=O)c1 [drawing 26]	0	0	0	0	0	–	–	–	–	–	–
CSC(C)=NOC(=O)N(C)SN(C)C(=O)Oc1cccc(C(C)=O)c1 [Compound 1, S-Methyl-N-[[[N'-[[N"-[(3-acetylphenoxy)carbonyl]-N"-methylaminosulfenyl]]-N'-methylcarbamoyloxy]]]thioacetimidate]	–	–	–	–	–	A	5	A	A	A	A
CSC(C)=NOC(=O)N(C)SN(C)C(=O)Oc1ccc(C(C)=O)cc1 [Compound 2]	–	–	–	–	–	A	5	A	A	A	A
CSC(C)=NOC(=O)N(C)SN(C)C(=O)Oc1cc(C)c(C)cc1C(C)=O [Compound 9]	–	–	–	–	–	A	1	A	A	A	A
CSC(C)=NOC(=O)N(C)SN(C)C(=O)Oc1ccccc1C=O [Compound 8]	–	–	–	–	–	B	4	A	A	A	A
